Experimental data published in patent US12226401B2, “Molecular genetic approach to treatment and diagnosis of alcohol and drug dependence” (priority 2010, dated 2025).
Read-outs that look alike come from different tables or passages of the source.

How the values were obtained:
[1] = dose of 50 mg/day; cited from earlier work
[2] = test system: methamphetamine dependent subjects; format: in vivo, human
Description: Methods—The study was conducted at 8 sites, 140 subjects consented, screened for study eligibility and met DSM-IV criteria for methamphetamine dependence. Subjects were randomized to topiramate or placebo at 50 mg, escalating to 200 mg topiramate daily over weeks 1-5, and 200 mg daily over weeks 6-12. The primary outcome measure was abstinence from methamphetamine during study weeks 6 through 12. Methamphetamine use was determined using qualitative urine testing at a central laboratory. The primary outcome was analyzed using a Generalized Estimating Equation (GEE) model during weeks 6 through 12. Secondary outcomes included use reduction compared to baseline, relapse rate for subjects with negative urine at randomization, and craving. Blood samples were collected for genetic markers to examine the effects of topiramate on gene expression and to correlate genetic subtypes with response to treatment. RNA samples were collected from whole blood for 50 topiramate- and 49 placebo-treated individuals at baseline and weeks 8 and 12. Genome-wide expression profiles between positive and negative responders for Weeks 8 and 12 from placebo- and topiramate-treated groups were compared.

[3] = cited from earlier work

Row | SMILES | Individuals in alcohol trials unable to tolerate naltrexone [1] | Treatment effect on primary outcome variable (abstinence from methamphetamine, weeks 6-12) ([2]; all subjects) | Treatment effect, exploratory analysis ([2]; subjects (n=26) with negative urine prior to randomization, p=0.02) | Treatment effect, exploratory analysis ([2]; subjects (n=35) whose baseline use was <18 days out of previous 30, p=0.03) | Cognitive impairment reported by individuals who take topiramate ([3]; general population) [%] | Occurrence rate of cognitive impairment ([3]; substance abuse field)
1 | Cl.O=C1CC[C@@]2(O)[C@H]3Cc4ccc(O)c5c4[C@@]2(CCN3CC2CC2)[C@H]1O5 [naltrexone, 17-(Cyclopropylmethyl)-4,5a-epoxy-3,14-dihydroxymorphinan-6-one hydrochloride] | about 15% |  |  |  |  | 
2 | CC1(C)O[C@@H]2[C@@H](CO[C@@]3(COS(N)(=O)=O)OC(C)(C)O[C@@H]23)O1 [topiramate, 2,3:4,5-Bis-O-(1-methylethylidene)-beta-D-fructopyranose sulfamate] |  | no significant treatment effect | significant treatment effect | significant treatment effect | 2.4 | about 18.7%
